Results on 7 molecules are retold here after ChEMBL document CHEMBL1148436, “Structural determinants for high 5-HT(2A) receptor affinity of spiro[9,10-dihydroanthracene]-9,3(')-pyrrolidine (SpAMDA)” (Bioorg Med Chem Lett, 2004).

Test [1] addresses Sodium-dependent noradrenaline transporter (Homo sapiens, UniProt P23975). The experiment in a line: Binding affinity towards Norepinephrine transporter using [3H]nisoxitine as radioligand.
The target in test [2] is Sodium-dependent serotonin transporter (Homo sapiens, UniProt P31645). The experiment in a line: Binding affinity towards Serotonin transporter using [3H]paroxetine as radioligand.
For test [3], the target named is 5-hydroxytryptamine receptor 2A (Homo sapiens, UniProt P28223). The experiment in a line: Binding affinity towards 5-hydroxytryptamine 2A receptor using [3H]ketanserin.
Test [4] has as its target T1, 5-hydroxytryptamine receptor 2C (Homo sapiens, UniProt P28335).
T1 sequence (P28335 whole entry): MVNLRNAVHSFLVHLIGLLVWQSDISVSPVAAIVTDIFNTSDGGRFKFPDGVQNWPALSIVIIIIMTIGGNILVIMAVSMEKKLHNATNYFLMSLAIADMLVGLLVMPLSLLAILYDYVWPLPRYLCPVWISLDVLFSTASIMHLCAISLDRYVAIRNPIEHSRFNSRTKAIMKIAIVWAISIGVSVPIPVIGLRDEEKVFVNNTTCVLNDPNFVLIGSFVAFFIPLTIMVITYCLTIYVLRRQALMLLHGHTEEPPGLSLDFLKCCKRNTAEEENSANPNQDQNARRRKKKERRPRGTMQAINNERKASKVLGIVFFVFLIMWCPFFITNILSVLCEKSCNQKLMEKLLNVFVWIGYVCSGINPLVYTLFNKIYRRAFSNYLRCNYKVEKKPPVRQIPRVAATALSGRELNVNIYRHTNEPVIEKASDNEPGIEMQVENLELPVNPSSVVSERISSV
Briefly: Binding affinity towards 5-hydroxytryptamine 2C receptor using [3H]mesulergine as radioligand.

On to `c1ccc2c(c1)Cc1ccccc1C21CCNC1`, for which the Ki in test [1] amounted to 10000 nM; in test [2], 3900 nM.

Molecule `c1ccc2c(c1)CCc1ccccc1C21CCNC1` showed a Ki in test [3] of 110 nM. `c1ccc2c(c1)CCCC21CCNC1` (stereo not drawn) displayed a Ki in test [3] greater than 10000 nM. The same measure, in the same setting: the same measure for `c1ccc2c(c1)Cc1ccccc1C21CCCNC1`: 99 nM; for `c1ccc(C2(c3ccccc3)CCNC2)cc1`: 4610 nM.

With `CN1CCC(=C2c3ccccc3C=Cc3ccccc32)CC1` [CYPROHEPTADINE], in test [4], the Ki is 11 nM.

`CN(C)CCCN1c2ccccc2CCc2ccccc21` [IMIPRAMINE] displayed a Ki in test [4] of 160 nM.

The term Ki denotes a measure of affinity in units of concentration, obtained from inhibition or displacement. A low value points to higher affinity.
